Laboratory results taken from US10774092B2 (SALK INSTITUTE FOR BIOLOGICAL STUDIES, priority 2014, dated 2020).
Structures can show the parent of a compound that is named as a salt.

target: ULK1; test: ULK1 inhibition assay (Table 1); type: biochemical; conditions: * = tested as a mixture of regioisomers

Row | SMILES | IC50
1 | COc1cc(Nc2ncc(Br)c(Nc3ccccc3)n2)cc(OC)c1OC [Example 293, 5-bromo-N4-phenyl-N2-(3,4,5-trimethoxyphenyl)pyrimidine-2,4-diamine] | < 200 nM
2 | O=C1CCc2cc(Nc3ncc(C(F)(F)F)c(Oc4ccccc4)n3)ccc2N1 [Example 300a, 6-((4-phenoxy-5-(trifluoromethyl)pyrimidin-2-yl)amino)-3,4-dihydroquinolin-2(1H)-one] | > 2000 nM
3 | O=C1CCc2cc(Nc3nc(Oc4ccccc4)ncc3C(F)(F)F)ccc2N1 [Example 300b, 6-((2-phenoxy-5-(trifluoromethyl)pyrimidin-4-yl)amino)-3,4-dihydroquinolin-2(1H)-one] | > 2000 nM
4 | FC(F)(F)c1cnc(Nc2ccc(Nc3ncc(C(F)(F)F)c(NC4CC4)n3)cc2)nc1NC1CC1 [Example 304b, N2,N2′-(1,4-phenylene)bis(N4-cyclopropyl-5-(trifluoromethyl)pyrimidine-2,4-diamine)] | > 2000 nM
5 | FC(F)(F)c1cnc(Nc2ccc3c(c2)CCNC3)nc1NC1CC1 [Example 309, N4-cyclopropyl-N2-(1,2,3,4-tetrahydroisoquinolin-6-yl)-5-(trifluoromethyl)pyrimidine-2,4-diamine.HCl] | < 200 nM
6 | NCCCNc1nc(Nc2ccc3c(c2)CCC(=O)N3)ncc1C(F)(F)F [Example 313, 6-((4-((3-aminopropyl)amino)-5-(trifluoromethyl)pyrimidin-2-yl)amino)-3,4-dihydroquinolin-2(1H)-one.HCl] | < 200 nM
7 | O=C1NC(=O)c2cc(Nc3ncc(C(F)(F)F)c(NC4CC4)n3)ccc21 [Example 314, 5-((4-(cyclopropylamino)-5-(trifluoromethyl)pyrimidin-2-yl)amino)isoindoline-1,3-dione] | < 200 nM
8 | CNC(=O)CCOc1nc(Nc2cc(OC)c(OC)c(OC)c2)ncc1Br [Example 316, 3-((5-bromo-2-((3,4,5-trimethoxyphenyl)amino)pyrimidin-4-yl)oxy)-N-methylpropanamide] | < 200 nM
9 | COc1cc(Nc2ncc(Br)c(Nc3ccccc3O)n2)cc(OC)c1OC [Example 317, 2-((5-bromo-2-((3,4,5-trimethoxyphenyl)amino)pyrimidin-4-yl)amino)phenol] | < 200 nM

target: ULK1 (Homo sapiens, UniProt O75385); test: ULK1 inhibition assay (Table 1); type: biochemical; conditions: * = tested as a mixture of regioisomers
Sequence (O75385 whole entry, looked up): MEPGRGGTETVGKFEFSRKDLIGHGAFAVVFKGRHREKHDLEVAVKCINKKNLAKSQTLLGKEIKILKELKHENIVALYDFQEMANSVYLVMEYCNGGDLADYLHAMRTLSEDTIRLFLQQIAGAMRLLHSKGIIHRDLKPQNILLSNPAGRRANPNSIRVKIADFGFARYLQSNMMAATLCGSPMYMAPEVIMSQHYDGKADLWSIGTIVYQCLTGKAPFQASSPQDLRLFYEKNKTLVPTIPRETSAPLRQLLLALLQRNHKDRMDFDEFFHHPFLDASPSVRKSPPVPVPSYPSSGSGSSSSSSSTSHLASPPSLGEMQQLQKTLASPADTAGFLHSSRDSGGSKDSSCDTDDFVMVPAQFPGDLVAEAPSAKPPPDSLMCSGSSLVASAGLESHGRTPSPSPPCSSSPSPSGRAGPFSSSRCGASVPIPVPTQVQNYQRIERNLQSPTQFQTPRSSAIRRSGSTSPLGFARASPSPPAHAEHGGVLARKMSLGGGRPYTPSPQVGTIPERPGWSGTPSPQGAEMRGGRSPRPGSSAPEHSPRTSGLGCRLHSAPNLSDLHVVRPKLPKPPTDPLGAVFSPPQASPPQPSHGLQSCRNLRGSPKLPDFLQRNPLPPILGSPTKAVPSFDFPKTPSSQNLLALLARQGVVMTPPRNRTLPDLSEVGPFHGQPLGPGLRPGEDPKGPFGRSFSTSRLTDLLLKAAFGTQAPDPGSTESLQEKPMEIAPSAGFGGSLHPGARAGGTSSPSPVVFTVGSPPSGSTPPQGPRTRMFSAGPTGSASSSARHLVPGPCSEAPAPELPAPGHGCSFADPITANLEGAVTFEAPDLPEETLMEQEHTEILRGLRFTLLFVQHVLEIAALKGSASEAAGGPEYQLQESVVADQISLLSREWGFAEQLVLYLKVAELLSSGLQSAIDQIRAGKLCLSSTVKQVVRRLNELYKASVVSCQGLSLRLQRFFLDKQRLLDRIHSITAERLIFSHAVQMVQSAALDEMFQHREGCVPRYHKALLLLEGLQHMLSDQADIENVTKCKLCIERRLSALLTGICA

Row | SMILES | IC50
10 | CC1CN1c1nc(Nc2ccc3c(c2)CCC(=O)N3)ncc1C(F)(F)F (centres unmarked) [Example 183a, 6-((4-(2-methylaziridin-1-yl)-5-(trifluoromethyl)pyrimidin-2-yl)amino)-3,4-dihydroquinolin-2(1H)-one] | > 2000 nM
11 | O=C1CCc2cc(Nc3ncc(C(F)(F)F)c(Nc4ccc5[nH]ncc5c4)n3)ccc2N1 [Example 185, 6-((4-((1H-indazol-5-yl)amino)-5-(trifluoromethyl)pyrimidin-2-yl)amino)-3,4-dihydroquinolin-2(1H)-one] | < 200 nM
12 | COc1cc(Nc2ncc(Br)c(NC3CC3)n2)cc(OC)c1OC [Example 186, 5-bromo-N4-cyclopropyl-N2-(3,4,5-trimethoxyphenyl)pyrimidine-2,4-diamine] | < 200 nM
13 | FC(F)(F)c1cnc(Nc2ccc3nn[nH]c3c2)nc1NC1CC1 [Example 188, N2-(1H-benzo[d][1,2,3]triazol-6-yl)-N4-cyclopropyl-5-(trifluoromethyl)pyrimidine-2,4-diamine] | < 200 nM
14 | FC(F)(F)c1cnc(Nc2ccc3c(c2)OCCCO3)nc1NC1CC1 [Example 190, N4-cyclopropyl-N2-(3,4-dihydro-2H-benzo[b][1,4]dioxepin-7-yl)-5-(trifluoromethyl)pyrimidine-2,4-diamine] | < 200 nM
15 | O=c1[nH]c2ncc(Nc3nc(Nc4ccc5c(c4)OCCO5)ncc3Br)cc2o1 [Example 192, 6-((5-bromo-2-((2,3-dihydrobenzo[b][1,4]dioxin-6-yl)amino)pyrimidin-4-yl)amino)oxazolo[4,5-b]pyridin-2(3H)-one] | < 200 nM
16 | O=C1CCc2cc(Nc3ncc(C(F)(F)F)c(NC4COC4)n3)ccc2N1 [Example 193, 6-((4-(oxetan-3-ylamino)-5-(trifluoromethyl)pyrimidin-2-yl)amino)-3,4-dihydroquinolin-2(1H)-one] | > 2000 nM
17 | FC(F)(F)c1cnc(Nc2cnc3[nH]ccc3c2)nc1NC1COC1 [Example 194, N4-(oxetan-3-yl)-N2-(1H-pyrrolo[2,3-b]pyridin-5-yl)-5-(trifluoromethyl)pyrimidine-2,4-diamine] | < 200 nM
18 | O=C1CCc2cc(Nc3ncc(C(F)(F)F)c(NCCO)n3)ccc2N1 [Example 197, 6-((4-((2-hydroxyethyl)amino)-5-(trifluoromethyl)pyrimidin-2-yl)amino)-3,4-dihydroquinolin-2(1H)-one] | < 200 nM
19 | CNC(=O)c1ccccc1Nc1nc(Nc2cnc3[nH]ccc3c2)ncc1C(F)(F)F [Example 201, 2-((2-((1H-pyrrolo[2,3-b]pyridin-5-yl)amino)-5-(trifluoromethyl)pyrimidin-4-yl)amino)-N-methylbenzamide] | < 200 nM
20 | CN(c1nc(Nc2ccc3c(c2)CCC(=O)N3)ncc1C(F)(F)F)C1CC1 [Example 202, 6-((4-(cyclopropyl(methyl)amino)-5-(trifluoromethyl)pyrimidin-2-yl)amino)-3,4-dihydroquinolin-2(1H)-one] | < 200 nM
21 | FC(F)(F)c1cnc(Nc2ccc3[nH]ccc3c2)nc1NC1CC1 [Example 206, N4-cyclopropyl-N2-(1H-indol-5-yl)-5-(trifluoromethyl) pyrimidine-2,4-diamine] | < 200 nM
22 | FC(F)(F)c1cnc(Nc2ccc3ncoc3c2)nc1NC1CC1 [Example 208a, N2-(benzo[d]oxazol-6-yl)-N4-cyclopropyl-5-(trifluoromethyl)pyrimidine-2,4-diamine] | < 200 nM
23 | Nc1nc(Nc2ccc3c(c2)CCC(=O)N3)ncc1C(F)(F)F [Example 209, 6-((4-amino-5-(trifluoromethyl)pyrimidin-2-yl)amino)-3,4-dihydroquinolin-2(1H)-one] | 200 to 2000 nM
24 | O=C1CCc2cc(Nc3ncc(C(F)(F)F)c(N(CCO)CCO)n3)ccc2N1 [Example 212a, 6-((4-(bis(2-hydroxyethyl)amino)-5-(trifluoromethyl)pyrimidin-2-yl)amino)-3,4-dihydroquinolin-2(1H)-one] | > 2000 nM
25 | FC(F)(F)c1cnc(Nc2ccc3c(c2)OCO3)nc1NC1CC1 [Example 213, N2-(benzo[d][1,3]dioxol-5-yl)-N4-cyclopropyl-5-(trifluoromethyl)pyrimidine-2,4-diamine] | < 200 nM
26 | O=C1CCc2cc(Nc3ncc(C(F)(F)F)c(N4CC(F)(F)C4)n3)ccc2N1 [Example 215, 6-((4-(3,3-difluoroazetidin-1-yl)-5-(trifluoromethyl)pyrimidin-2-yl)amino)-3,4-dihydroquinolin-2(1H)-one] | < 200 nM
27 | O=C1CCc2cc(Nc3ncc(C(F)(F)F)c(NCC4CC4)n3)ccc2N1 [Example 216, 6-((4-((cyclopropylmethyl)amino)-5-(trifluoromethyl)pyrimidin-2-yl)amino)-3,4-dihydroquinolin-2(1H)-one] | < 200 nM
28 | Nc1nc(Nc2cnc3[nH]ccc3c2)ncc1C(F)(F)F [Example 217, N2-(1H-pyrrolo[2,3-b]pyridin-5-yl)-5-(trifluoromethyl) pyrimidine-2,4-diamine] | > 2000 nM
29 | COC(=O)CNc1nc(Nc2ccc3c(c2)CCC(=O)N3)ncc1C(F)(F)F [Example 218, Methyl (2-((2-oxo-1,2,3,4-tetrahydroquinolin-6-yl)amino)-5-(trifluoromethyl)pyrimidin-4-yl)glycinate] | > 2000 nM
